Test results reported in US20130090315A1 (priority 2011, published 2013).

What was measured:
rats following injury = conditions: cited from earlier work
rats suffering from TBI = conditions: 16 mg/kg, 72 hours post-injury, FIG. 1, p<0.05; cited from earlier work
[1] = system: rats that have suffered a concussion; assay: Morris Water Maze latency to platform in mTBI (concussion) model; format: in vivo; conditions: versus vehicle-injured rats, FIG. 8
[2] = system: moderate to severe TBI patients; conditions: cited from earlier work
males = conditions: in males; cited from earlier work
[3] = molecular target: T1, progesterone receptor (PR) (Homo sapiens, UniProt P06401); conditions: cited from earlier work
T1 sequence (P06401 1-933): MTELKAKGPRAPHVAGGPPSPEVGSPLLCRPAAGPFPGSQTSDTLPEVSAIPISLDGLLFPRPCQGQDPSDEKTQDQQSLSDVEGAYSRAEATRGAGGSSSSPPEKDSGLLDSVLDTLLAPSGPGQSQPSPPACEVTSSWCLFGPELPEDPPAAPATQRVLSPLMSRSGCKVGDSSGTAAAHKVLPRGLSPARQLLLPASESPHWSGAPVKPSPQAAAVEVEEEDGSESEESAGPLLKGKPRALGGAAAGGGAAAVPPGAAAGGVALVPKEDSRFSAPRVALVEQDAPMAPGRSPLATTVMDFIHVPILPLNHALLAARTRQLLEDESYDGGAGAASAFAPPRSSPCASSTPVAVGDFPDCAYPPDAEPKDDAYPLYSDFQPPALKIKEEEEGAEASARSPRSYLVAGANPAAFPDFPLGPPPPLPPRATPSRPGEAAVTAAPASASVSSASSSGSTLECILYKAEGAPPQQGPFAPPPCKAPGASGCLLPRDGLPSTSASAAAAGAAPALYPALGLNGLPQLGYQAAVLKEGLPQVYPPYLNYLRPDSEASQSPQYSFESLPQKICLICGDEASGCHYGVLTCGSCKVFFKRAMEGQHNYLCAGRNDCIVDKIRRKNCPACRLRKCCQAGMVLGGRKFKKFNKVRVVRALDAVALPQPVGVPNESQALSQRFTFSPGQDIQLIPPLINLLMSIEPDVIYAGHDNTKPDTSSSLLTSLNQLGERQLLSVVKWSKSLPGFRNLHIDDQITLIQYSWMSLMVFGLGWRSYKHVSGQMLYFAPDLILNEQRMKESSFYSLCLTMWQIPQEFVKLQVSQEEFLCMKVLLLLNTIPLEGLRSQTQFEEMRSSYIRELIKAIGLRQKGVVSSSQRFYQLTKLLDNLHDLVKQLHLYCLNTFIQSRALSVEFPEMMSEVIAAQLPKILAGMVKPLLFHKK

glutathione reductase = conditions: 72 hours post-injury, compared to all other groups, FIG. 2, p<0.01; cited from earlier work

CC(=O)[C@H]1CC[C@H]2[C@@H]3CC[C@H]4C[C@H](O)CC[C@]4(C)[C@H]3CC[C@]12C [ALLO, allopregnanolone]
factors of cell death (caspase-3) and gliosis (GFAP) (rats following injury): decreased of the presence of the factors of cell death (caspase-3) and gliosis (GFAP) | brain water content (measure of edema) (rats suffering from TBI): normalizes brain water content

CC(=O)[C@H]1CC[C@H]2[C@@H]3CCC4=CC(=O)CC[C@]4(C)[C@H]3CC[C@]12C [Prog, progesterone]
latency to platform, post-acute administration ([1]; 15 minutes post mTBI): decreases latency to platform | latency to platform, prophylactic administration ([1]; 15 minutes prior to mTBI): decreases latency to platform | 30 days post-injury outcomes (Glasgow Outcome Scale-Extended, Disability Rating Scale), moderate TBI ([2]; moderate TBI patients, 30 days post-injury): better outcomes | reduction in mortality ([2]; moderate to severe TBI patients, 72 hours of continuous intravenous Prog): 50% | 30 days post-injury outcomes (Glasgow Outcome Scale-Extended, Disability Rating Scale), severe brain injuries ([2]; patients with severe brain injuries, 30 days post-injury): little measurable difference | neurological outcomes at six months ([2]; severe TBI patients, six months): better neurological outcomes long-term | edema in both rodent sexes (rats following injury; both rodent sexes): effectively attenuates edema | factors of cell death (caspase-3) and gliosis (GFAP) (rats following injury): decreased of the presence of the factors of cell death (caspase-3) and gliosis (GFAP) | inflammatory factors (TNF-α and IL-β) (rats following injury): inhibiting inflammatory factors (TNF-α and IL-β) | Neurological Severity Score (motor and cognitive functioning) (rats following injury; rats): significant improvements | conversion of testosterone to dihydrotestosterone (males): inhibits the conversion of testosterone to dihydrotestosterone | size of reproductive organs (males): reduces the size of reproductive organs | spermatogenesis (males): suppresses spermatogenesis | brain water content (measure of edema) (rats suffering from TBI): normalizes brain water content

CC(=O)[C@@H]1CC[C@@H]2[C@H]3CCC4=CC(=O)CC[C@@]4(C)[C@@H]3CC[C@]21C [ent-Prog, ent-progesterone]
activation of PR-mediated transcription [3]: does not activate PR-mediated transcription | brain water content (measure of edema) (rats suffering from TBI): normalizes brain water content | anti-oxidant activity of glutathione reductase (glutathione reductase): significantly increases the anti-oxidant activity of glutathione reductase
